Experimental data as given in patent US8642585B2, “Indanyloxydihydrobenzofuranylacetic acids” (Boehringer Ingelheim International GmbH, priority 2012, dated 2014).

What follows are compounds tested against T1, human GPR40 receptor (Homo sapiens, UniProt O14842) (assay: Assay I: IP1 accumulation (IPOne HTRF) in 1321N1 cells stably expressing human GPR40). Conditions: 1321N1 cells expressing human GPR40, stimulation 1 hour at 37° C., 10% CO2, final LiCl 50 mM.
T1 sequence (O14842 whole entry): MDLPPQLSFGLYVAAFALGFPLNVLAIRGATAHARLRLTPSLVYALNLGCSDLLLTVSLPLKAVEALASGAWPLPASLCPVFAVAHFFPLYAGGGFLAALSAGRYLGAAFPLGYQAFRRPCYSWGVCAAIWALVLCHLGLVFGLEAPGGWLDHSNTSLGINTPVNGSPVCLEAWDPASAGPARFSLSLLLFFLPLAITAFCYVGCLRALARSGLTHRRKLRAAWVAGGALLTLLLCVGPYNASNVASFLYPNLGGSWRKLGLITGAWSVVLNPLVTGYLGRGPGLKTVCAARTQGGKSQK
Type: cell-based
Experimental: IP1 accumulation measurements using the IPOne assay system—1321N1 cells stably expressing human GPR40 receptor (Euroscreen, Belgium) are seeded 24 h before the assay in black clear-bottom collagen-coated 384-well plates in culture medium containing 10% FCS, 1% Na-Pyruvate and 400 μg/mL G418. IP1 is assayed according to the Manufacturers description (Cisbio Bioassays, France). In brief, the assay is started by substitution of the culture medium by stimulation buffer (Hepes 10 mM, CaCl2 1 mM, MgCl2 0.5 mM, KCl 4.2 mM, NaCl 146 mM and glucose 5.5 mM, pH 7.4) without LiCl. Cells are stimulated for 1 hour at 37° C., 10% CO2 by addition of the compounds that are diluted in stimulation buffer containing LiCl yielding a final LiCl concentration of 50 mM. Assays are stopped by adding HTRF-conjugates (IP1-d2 and Anti-IP1 cryptate Tb) and lysis buffer, provided by the manufacturer. After an incubation time of 1 hour at room temperature plates are measured using an EnVision™, Perkin Elmer. The obtained fluorescence ratios at 665/615 nM are then used to calculate the pEC50 values using GraphPad Prism 5 (Graphpad Software Inc, USA) by interpolation using an IP1 reference curve and subsequent sigmoidal curve fitting allowing for a variable hill slope.
Work on `Cc1cc(OCC2(C)COC2)cc(C)c1-c1ccc(F)c2c1CC[C@H]2Oc1ccc2c(c1)OC[C@H]2CC(=O)O` [Example 1, 2-((S)-6-((R)-4-(2,6-dimethyl-4-((3-methyloxetan-3-yl)methoxy)phenyl)-7-fluoro-2,3-dihydro-1H-inden-1-yloxy)-2,3-dihydrobenzofuran-3-yl)acetic acid] yielded an EC50 of 4 nM. For `Cc1cc(OCC2CCOC2)cc(C)c1-c1ccc(F)c2c1CC[C@H]2Oc1ccc2c(c1)OC[C@H]2CC(=O)O` (stereo partly drawn) [Example 2, 2-((3S)-6-((1R)-4-(2,6-dimethyl-4-((tetrahydrofuran-3-yl)methoxy)phenyl)-7-fluoro-2,3-dihydro-1H-inden-1-yloxy)-2,3-dihydrobenzofuran-3-yl)acetic acid], the EC50 was 5 nM. Compound `Cc1cc(OCC2CCCO2)cc(C)c1-c1ccc(F)c2c1CC[C@H]2Oc1ccc2c(c1)OC[C@H]2CC(=O)O` (stereo partly drawn) [Example 3, 2-((3S)-6-((1R)-4-(2,6-dimethyl-4-((tetrahydrofuran-2-yl)methoxy)phenyl)-7-fluoro-2,3-dihydro-1H-inden-1-yloxy)-2,3-dihydrobenzofuran-3-yl)acetic acid] has an EC50 of 6 nM. For `Cc1cc(OCCC(C)(C)O)cc(C)c1-c1ccc(F)c2c1CC[C@H]2Oc1ccc2c(c1)OC[C@H]2CC(=O)O` [Example 4, 2-((S)-6-((R)-7-Fluoro-4-(4-(3-hydroxy-3-methylbutoxy)-2,6-dimethylphenyl)-2,3-dihydro-1H-inden-1-yloxy)-2,3-dihydrobenzofuran-3-yl)acetic acid], the EC50 was 5 nM. `Cc1cc(OCC[S+](C)[O-])cc(C)c1-c1ccc(F)c2c1CC[C@H]2Oc1ccc2c(c1)OC[C@H]2CC(=O)O` (stereo partly drawn) [Example 5, 2-((3S)-6-((1R)-4-(2,6-Dimethyl-4-(2-(methylsulfinyl)ethoxy)phenyl)-7-fluoro-2,3-dihydro-1H-inden-1-yloxy)-2,3-dihydrobenzofuran-3-yl)acetic acid] showed an EC50 of 19 nM. In the case of `Cc1cc(OCCS(C)(=O)=O)cc(C)c1-c1ccc(F)c2c1CC[C@H]2Oc1ccc2c(c1)OC[C@H]2CC(=O)O` [Example 6, 2-((S)-6-((R)-4-(2,6-Dimethyl-4-(2-(methylsulfonyl)ethoxy)phenyl)-7-fluoro-2,3-dihydro-1H-inden-1-yloxy)-2,3-dihydrobenzofuran-3-yl)acetic acid], the EC50 is reported as 22 nM. In the case of `Cc1cc(OC2CCOCC2)cc(C)c1-c1ccc(F)c2c1CC[C@H]2Oc1ccc2c(c1)OC[C@H]2CC(=O)O` [Example 7, 2-((S)-6-((R)-4-(2,6-Dimethyl-4-(tetrahydro-2H-pyran-4-yloxy)phenyl)-7-fluoro-2,3-dihydro-1H-inden-1-yloxy)-2,3-dihydrobenzofuran-3-yl)acetic acid], the EC50 is reported as 6 nM. `Cc1cc(O[C@H]2CCOC2)cc(C)c1-c1ccc(F)c2c1CC[C@H]2Oc1ccc2c(c1)OC[C@H]2CC(=O)O` [Example 8, 2-((S)-6-((R)-4-(2,6-Dimethyl-4-((S)-tetrahydrofuran-3-yloxy)phenyl)-7-fluoro-2,3-dihydro-1H-inden-1-yloxy)-2,3-dihydrobenzofuran-3-yl)acetic acid] gave an EC50 of 4 nM. `Cc1cc(O[C@@H]2CCOC2)cc(C)c1-c1ccc(F)c2c1CC[C@H]2Oc1ccc2c(c1)OC[C@H]2CC(=O)O` [Example 9, 2-((S)-6-((R)-4-(2,6-Dimethyl-4-((R)-tetrahydrofuran-3-yloxy)phenyl)-7-fluoro-2,3-dihydro-1H-inden-1-yloxy)-2,3-dihydrobenzofuran-3-yl)acetic acid] showed an EC50 of 9 nM. `Cc1cc(OCC(C)(C)O)cc(C)c1-c1ccc(F)c2c1CC[C@H]2Oc1ccc2c(c1)OC[C@H]2CC(=O)O` [Example 10, 2-((S)-6-((R)-7-Fluoro-4-(4-(2-hydroxy-2-methylpropoxy)-2,6-dimethylphenyl)-2,3-dihydro-1H-inden-1-yloxy)-2,3-dihydrobenzofuran-3-yl)acetic acid] gave an EC50 of 9 nM. `Cc1cc(OC2CCC(O)C2)cc(C)c1-c1ccc(F)c2c1CC[C@H]2Oc1ccc2c(c1)OC[C@H]2CC(=O)O` (stereo partly drawn) [Example 11, 2-((3S)-6-((1R)-7-Fluoro-4-(4-(3-hydroxycyclopentyloxy)-2,6-dimethylphenyl)-2,3-dihydro-1H-inden-1-yloxy)-2,3-dihydrobenzofuran-3-yl)acetic acid] showed an EC50 of 5 nM. `CNC(=O)COc1cc(C)c(-c2ccc(F)c3c2CC[C@H]3Oc2ccc3c(c2)OC[C@H]3CC(=O)O)c(C)c1` [Example 12, 2-((S)-6-((R)-4-(2,6-Dimethyl-4-(2-(methylamino)-2-oxoethoxy)phenyl)-7-fluoro-2,3-dihydro-1H-inden-1-yloxy)-2,3-dihydrobenzofuran-3-yl)acetic acid] showed an EC50 of 12 nM. For `Cc1cc(OCC(=O)N(C)C)cc(C)c1-c1ccc(F)c2c1CC[C@H]2Oc1ccc2c(c1)OC[C@H]2CC(=O)O` [Example 13, 2-((S)-6-((R)-4-(4-(2-(Dimethylamino)-2-oxoethoxy)-2,6-dimethylphenyl)-7-fluoro-2,3-dihydro-1H-inden-1-yloxy)-2,3-dihydrobenzofuran-3-yl)acetic acid], the EC50 was 63 nM. `Cc1cc(OCC(N)=O)cc(C)c1-c1ccc(F)c2c1CC[C@H]2Oc1ccc2c(c1)OC[C@H]2CC(=O)O` [Example 14, 2-((S)-6-((R)-4-(4-(2-Amino-2-oxoethoxy)-2,6-dimethylphenyl)-7-fluoro-2,3-dihydro-1H-inden-1-yloxy)-2,3-dihydrobenzofuran-3-yl)acetic acid] showed an EC50 of 14 nM. `Cc1cc(OCC(C)(C)CO)cc(C)c1-c1ccc(F)c2c1CC[C@H]2Oc1ccc2c(c1)OC[C@H]2CC(=O)O` [Example 15, 2-((S)-6-((R)-7-Fluoro-4-(4-(3-hydroxy-2,2-dimethylpropoxy)-2,6-dimethylphenyl)-2,3-dihydro-1H-inden-1-yloxy)-2,3-dihydrobenzofuran-3-yl)acetic acid] showed an EC50 of 5 nM. `COCC(C)(C)COc1cc(C)c(-c2ccc(F)c3c2CC[C@H]3Oc2ccc3c(c2)OC[C@H]3CC(=O)O)c(C)c1` [Example 16, 2-((S)-6-((R)-7-Fluoro-4-(4-(3-methoxy-2,2-dimethylpropoxy)-2,6-dimethylphenyl)-2,3-dihydro-1H-inden-1-yloxy)-2,3-dihydrobenzofuran-3-yl)acetic acid] was tested, and the EC50 was 5 nM. Work on `Cc1cc(-c2cncnc2)cc(C)c1-c1ccc(F)c2c1CC[C@H]2Oc1ccc2c(c1)OC[C@H]2CC(=O)O` [Example 17, 2-((S)-6-((R)-4-(2,6-Dimethyl-4-(pyrimidin-5-yl)phenyl)-7-fluoro-2,3-dihydro-1H-inden-1-yloxy)-2,3-dihydrobenzofuran-3-yl)acetic acid] yielded an EC50 of 4 nM. `Cc1cc(-c2ncco2)cc(C)c1-c1ccc(F)c2c1CC[C@H]2Oc1ccc2c(c1)OC[C@H]2CC(=O)O` [Example 18, 2-((S)-6-((R)-4-(2,6-Dimethyl-4-(oxazol-2-yl)phenyl)-7-fluoro-2,3-dihydro-1H-inden-1-yloxy)-2,3-dihydrobenzofuran-3-yl)acetic acid] showed an EC50 of 4 nM. Work on `Cc1cc(-c2cnn(C)c2)cc(C)c1-c1ccc(F)c2c1CC[C@H]2Oc1ccc2c(c1)OC[C@H]2CC(=O)O` [Example 19, 2-((S)-6-((R)-4-(2,6-Dimethyl-4-(1-methyl-1H-pyrazol-4-yl)phenyl)-7-fluoro-2,3-dihydro-1H-inden-1-yloxy)-2,3-dihydrobenzofuran-3-yl)acetic acid] yielded an EC50 of 3 nM. For `Cc1cc(-c2ccnn2C)cc(C)c1-c1ccc(F)c2c1CC[C@H]2Oc1ccc2c(c1)OC[C@H]2CC(=O)O` [Example 20, 2-((S)-6-((R)-4-(2,6-Dimethyl-4-(1-methyl-1H-pyrazol-5-yl)phenyl)-7-fluoro-2,3-dihydro-1H-inden-1-yloxy)-2,3-dihydrobenzofuran-3-yl)acetic acid], the EC50 was 9 nM.

The compounds below were run against T1, human GPR40 receptor (assay: Assay II: IP1 accumulation (IPOne HTRF) in 1321N1 cells stably expressing human GPR40). Conditions: 1321N1 cells expressing human GPR40, stimulation 1 h at 37° C., 5% CO2, LiCl 50 mM.
Type: cell-based
Outline: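 1321N1 cells stably expressing human GPR40, seeded 24 h earlier, were stimulated with compound for 1 h at 37 °C in LiCl (50 mM) buffer, pH 7.4. IP1 measured by HTRF (665/615 ratio) after lysis and 1 h room temperature; pEC50 via IP1 reference curve and variable-slope sigmoidal fit.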
In the case of `Cc1cc(OCc2nccn2C)cc(C)c1-c1ccc(F)c2c1CC[C@H]2Oc1ccc2c(c1)OC[C@H]2CC(=O)O` [Example 149, 2-((S)-6-((R)-4-(2,6-dimethyl-4-((1-methyl-1H-imidazol-2-yl)methoxy)phenyl)-7-fluoro-2,3-dihydro-1H-inden-1-yloxy)-2,3-dihydrobenzofuran-3-yl)acetic acid], the EC50 is reported as 12 nM. With `Cc1cc(OCC2CCOCC2)cc(C)c1-c1ccc(F)c2c1CC[C@H]2Oc1ccc2c(c1)OC[C@H]2CC(=O)O` [Example 150, 2-((S)-6-((R)-4-(2,6-dimethyl-4-((tetrahydro-2H-pyran-4-yl)methoxy)phenyl)-7-fluoro-2,3-dihydro-1H-inden-1-yloxy)-2,3-dihydrobenzofuran-3-yl)acetic acid] the EC50 was 6 nM. Work on `Cc1cc(OCc2cnn(C)c2)cc(C)c1-c1ccc(F)c2c1CC[C@H]2Oc1ccc2c(c1)OC[C@H]2CC(=O)O` [Example 152, 2-((S)-6-((R)-4-(2,6-dimethyl-4-((1-methyl-1H-pyrazol-4-yl)methoxy)phenyl)-7-fluoro-2,3-dihydro-1H-inden-1-yloxy)-2,3-dihydrobenzofuran-3-yl)acetic acid] yielded an EC50 of 19 nM. “((S)-6-{(R)-4-[4-((R)-1,1-Dioxo- tetrahydro-1-thiophen-3- ylmethoxy)-2,6-dimethyl- phenyl]-7-fluoro-indan-1- yloxy}-2,3-dihydro-benzofuran- 3-yl)-acetic acid [Example 47]” gave an EC50 of 8 nM.
